Measurements published in publication PMC10058050, “A Bitter Taste Receptor as a Novel Molecular Target on Cancer-Associated Fibroblasts in Pancreatic Ductal Adenocarcinoma” (Pharmaceuticals, 2023).

What was measured:
[1] = system: CAFs isolated from the stroma of PDAC patients; settings: cited from earlier work; for Specificity and selectivity for CAFs: CAFs isolated from the stroma of PDAC patients
[2] = system: recombinant human TAS2R9 (rhTAS2R9); experiment: Phage ELISA on recombinant human TAS2R9 (in-proteo ELISA); assay type: binding; settings: 4 × 10^9 pfu phage; absorbance 650 nm, 35 min after TMB; normalized to M13KE; 1 h RT; n = 3, p < 0.05
Protocol: Thus, we hypothesized that their binding partners could serve as potential cellular markers and therapeutic targets for CAFs. Using a phage display-based functional proteomics approach, wild-type (WT) M13KE phage or phage displaying CAF selective peptides (phHTTIPKV and phAPPIMSV) were incubated with PDAC patient-derived CAFs allowing the phage to serve as “bait.” Phage were chemically modified to crosslink to their cell surface binding partner, then phage pull-down samples were resolved via SDS-PAGE. […] In-proteo ELISA experiments were performed to evaluate the specific binding of phHTTIPKV to recombinant human TAS2R9 (rhTAS2R9). Phage displaying KTLLPTP (phKTLLPTP), a PDAC epithelial cell-specific peptide, served as a negative control. […]
(§1) Figure 1 TAS2R9 expression in CAFs isolated from human PDAC. […] (B) 4 × 10^9 pfu phHTTIPKV and a PDAC specific phage, phKTLLPTP, were applied to rhTAS2R9 to determine the absorbance of phage binding to rhTAS2R9 at 650 nm. The absorbance of both phage were normalized to the absorbance detected from rhTAS2R9 bound to the wild-type M13Ke phage. n = 3, * p < 0.05. […]
About 100 μL of 0.1 μg/mL rhTAS2R9 (Novus Biological, Littleton, CO, USA) was plated in 96-well plates overnight at 4 °C. […] The absorbance was measured on a microplate reader at 650 nm at 35 min post addition of TMB

[3] = all dose levels up to 240 mg; cited from earlier work
Text: While mounting evidence points to a role of bitter taste receptors in cancer epithelial cells and in Tuft cells, this report, is to our knowledge, the first indication that TAS2R9 is expressed on CAFs. The fact that TAS2R9 is overexpressed in 7.33% of human PDAC tissue, and that its expression in pancreatic CAFs is 57-fold higher than in the human dermal fibroblast raises the interesting question of what role TAS2R9 may play in CAFs. In particular, the revelation that TAS2R9 mRNA expression ...

Ki67 = Ki67 staining of tumor sections (cell proliferation); assay type: in vivo, mouse (athymic nude); settings: ImageJ; p < 0.01
Protocol: Tumor sections were blocked for 1 h in blocking buffer, and incubated with FITC-conjugated anti-CD31 (BD biosciences, 1:100, 20 min) then anti-rat secondary (1:250, 20 min), or anti-Ki67 (Abcam, 1:250, 20 min) then anti-rabbit secondary (1:250, 20 min). Images were collected using ZEISS LSM-880 Confocal Laser Scanning Microscope (Carl Zeiss Meditec, Inc., Jena, Germany). Mander’s correlation coefficients were determined using the JACoP plugin in ImageJ (National Institute of Health, Bethesda, MD, USA) for the colocalization analysis. To characterize CD31 and Ki67 expression, the area fraction of the positive pixels was measured for each image using the Measurement Tool in ImageJ. Section averages were entered into Prism to find overall means for each treatment group and tested for statistical significance between groups using the Student’s t-test.
The drug dosage was calculated for each treatment to achieve the same weekly amount of Sb225002 given per animal. Tumor volume was measured with calipers twice weekly until day 19, at which time the tumors were harvested for cell proliferation (Ki67) and angiogenesis (CD31) analysis, and CXCR2 IHC staining.

KPC mice = settings: cited from earlier work
Text: CXCR2 antagonists have been explored in non-cancer lung diseases (e.g., NCT01255592, NCT01006616) and in certain cancers such as castration-resistant prostate cancer (NCT03177187) and squamous cell carcinoma of the head and neck (NCT02499328).

CXCR2 = settings: cited from earlier work
Text: To further evaluate pharmacodynamics, we characterized CXCR2 inhibition as a surrogate for the delivery of SB225002. Tumors from all groups were fixed and paraffin embedded for immunohistochemistry staining. […] Furthermore, the inhibition of angiogenesis has been cited as a contributing factor to th ...

[4] = system: PDAC patient-derived CAFs (TAS2R9); experiment: Phage display-based pulldown from PDAC patient-derived CAFs with MS/MS identification; assay type: binding, human; settings: SDS-PAGE, compared with WT M13KE phage and phAPPIMSV
Protocol: Thus, we hypothesized that their binding partners could serve as potential cellular markers and therapeutic targets for CAFs. Using a phage display-based functional proteomics approach, wild-type (WT) M13KE phage or phage displaying CAF selective peptides (phHTTIPKV and phAPPIMSV) were incubated with PDAC patient-derived CAFs allowing the phage to serve as “bait.” Phage were chemically modified to crosslink to their cell surface binding partner, then phage pull-down samples were resolved via SDS-PAGE. […] In-proteo ELISA experiments were performed to evaluate the specific binding of phHTTIPKV to recombinant human TAS2R9 (rhTAS2R9). Phage displaying KTLLPTP (phKTLLPTP), a PDAC epithelial cell-specific peptide, served as a negative control. […] Therefore, we pursued validation of TAS2R9 as HTTIPKV’s target and as a novel CAF-selective cell surface marker.
as §1, with “PDAC. (A) Phage pulldowns from PDAC patient-derived CAFs by the M13Ke (lane 1) and CAF-specific phages, phAPPIMSV and phHTTIPKV (lane 2 and 3).” for “PDAC.”

[5] = target: T1, recombinant human TAS2R9 (rhTAS2R9) (human) (UniProt Q9NYW1); experiment: ELISA; 0.1 ug/mL rhTAS2R9 coated on 96-well plates overnight at 4 °C, 5% milk block, 40 uL phage at 1 x 10^8 pfu/uL for 1 h at room temperature, HRP anti-M13 antibody, absorbance at 650 nm; normalised to wild-type M13KE phage
T1 sequence (Q9NYW1 whole entry, looked up): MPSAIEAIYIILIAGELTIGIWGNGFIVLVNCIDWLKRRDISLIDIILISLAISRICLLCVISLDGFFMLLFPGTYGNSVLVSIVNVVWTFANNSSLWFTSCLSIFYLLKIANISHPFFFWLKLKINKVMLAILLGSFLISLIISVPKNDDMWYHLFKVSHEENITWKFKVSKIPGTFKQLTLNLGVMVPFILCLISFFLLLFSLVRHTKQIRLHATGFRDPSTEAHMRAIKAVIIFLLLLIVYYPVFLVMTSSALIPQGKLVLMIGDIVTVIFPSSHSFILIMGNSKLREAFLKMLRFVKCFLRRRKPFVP

Molecule: APPIMSV
- Specificity and selectivity for CAFs [1]: high specificity and selectivity for CAFs

Molecule: HTTIPKV [phHTTIPKV]
- Increase in specific binding to rhTAS2R9 compared to phKTLLPTP [2]: 2.72 fold

Molecule: CC(=O)[O-].CC[N+](CC)(CC(=O)Nc1c(C)cccc1C)Cc1ccccc1 [pan-TAS2R agonist, Denatonium Acetate]
- Tolerability in phase one clinical trial [3]: well tolerated at all dose levels up to 240 mg

Molecule: O=C(Nc1ccc([N+](=O)[O-])cc1O)Nc1ccccc1Br [SB225002]
- Ki67+ area fraction (cell proliferation) (Ki67): significant reduction in Ki67+ area fraction
- Survival of KPC mice (KPC mice): profoundly prolong survival in KPC mice
- Contribution to anti-tumor effects: angiogenesis (CXCR2): inhibition of angiogenesis has been cited as a contributing factor to the anti-tumor effects

Molecule: HTTIPKV
- Unique band in phage pulldown [4]: presence of a unique band
- Specificity and selectivity for CAFs [1]: high specificity and selectivity for CAFs
- Selectivity for CAFs in vitro and in vivo ([1]; signature database of 56 cell lines and tissues): selective for CAFs across in vitro and in vivo experiments

Molecule: HTTIPKV [phage displaying HTTIPKV (phHTTIPKV)]
- fold specific binding against phKTLLPTP (each normalised to M13KE phage) [5]: 2.72 fold
